Patent US20240116898A1, “NOVEL GLUTAMINYL CYCLASE INHIBITORS AND THE USE THEREOF IN TREATMENT OF VARIOUS DISEASES” (LTD "VALENTA-INTELLEKT", priority 2017, published 2024)

How the values were obtained:
[1] = system: specific pain reaction by chemical irritation of the peritoneum in Balb/c mice; experiment: Abdominal constriction test (acetic acid) in mice; assay type: in vivo, mouse
Protocol: The model of the specific pain reaction by the method of chemical stimulation of peritoneum (“abdominal constriction” test) was carried out according to the standard procedure. To conduct the “abdominal constriction” test, Balb/c mice were intraperitoneally administered with 1% acetic acid in a volume of 10 ml per kg of the animal body weight. […] A quantity of constrictions (convulsive twitching of the abdominal muscles accompanied with stretching hind quarters and arching) was evaluated 15 minutes after the administration of acetic acid.

[2] = system: carrageenan-induced rat paw edema; experiment: Carrageenan-induced rat paw edema; assay type: in vivo; conditions: 8 mg/kg, 2 hours after carrageenan
Protocol: Experiments were performed on male white nonlinear rats weighing 250-270 g.

[3] = system: formaldehyde-induced pharyngitis in rats; experiment: Rat model of non-infectious pharyngitis (Evans blue exudation); assay type: in vivo
Protocol: The rats were anesthetized with sodium thiopentone (50 mg/kg, intraperitoneally) and a cannula with a RenaSil® silicone rubber tube (SIL 037, Braintree Scientific, Inc., Braintree, MA) was inserted into the external jugular vein using a heparinized saline solution (40 U/ml).
The Evans Blue dye (Evans Blue, EB) (30 mg/kg) was administered to all the animals intravenously through a catheter; 10 minutes after the EB dye was administered, a 30% formalin solution was applied to the surface of the pharyngeal mucosa as follows: the tongue was slightly pulled out, the pharyngeal area was opened deep in the mouth with blunt forceps and gently, using a sterile cotton pad, the formation solution (50 μl) was applied for 5 seconds each time it is applied. In the intact group thephysiologicla solution was used.
60 minutes after the application of 30% formalin solution, the animals were euthanized by the exsanguination. The head of each rat was perfused with the heparinized saline solution (40 U/ml) to remove the intravascular EB dye.
The degree of the inflammation was assessed by the exudation test of the Evans blue (EB) dye. […] The amount of dye in the fabric was calculated using the standard curve for the Evans blue dye, and was expressed in micrograms of the dye per gram of wet fabric weight (μg/g).
The formaldehyde solution with a concentration of 30% was adminstered to the control group.

[4] = system: thermal pain irritation hot plate in Balb/c mice; conditions: mouse, in vivo
Protocol: The model of thermal pain irritation “hot plate” was carried out according to the standard procedure [Barrot M. Tests and models of nociception and pain in rodents. […] After 1 hour after the administration of the preparation, the “hot plate” test was carried out. To conduct the “hot plate” test, the mice were placed on the hot plate, the temperature (+55±1° C.) of which is constant.
The time of first manifestations of the pain response in mice (paw licking, jumping) was registered and the mean latent time of the threshold of pain sensitivity (TPS, sec) in each group was calculated.

[5] = 0.3 mg/kg intragastric 1 hour before acetic acid

For `CC(C)(CC(=O)NCCc1cnc[nH]1)CC(=O)NCCc1cnc[nH]1` [Compound IX, N,N′-bis[2-(1H-imidazol-4-yl)ethyl]-3,3-dimethylpentanediamide], the “Quantity of constrictions for 15 minutes” value [1, 5] was 11.6 ± 3.5.

For `O=C(c1ccccc1)c1ccc2n1CCC2C(=O)O` (stereo not drawn) [Ketorol, reference compound], the “Quantity of constrictions for 15 minutes” value ([1]; 15 mg/kg) was 23.60 ± 1.87.

For `O=C(O)Cc1ccccc1Nc1c(Cl)cccc1Cl` [Diclofenac, reference compound], the “Inhibition of edema growth” value [2] was 42%, the “Effect on pharyngitis inflammation (dye concentration)” value ([3]; 8 mg/kg) was “no effect” and the “The concentration of the dye in the tissue” value ([3]; 8 mg/kg intragastric 24 h and 1 h before formaldehyde) was 0.112 ± 0.031 µg/mg.

In the case of `O=C(NCCc1cnc[nH]1)C(=O)NCCc1cnc[nH]1` [Compound I, N,N′-bis[2-(1H-imidazol-4-yl)ethyl]oxalamide], the “Decrease of the concentration of dye in the tissue compared to the control” value ([3]; 6 mg/kg) was 2.8 times, the “Decrease of the concentration of dye in the tissue compared to the control” value ([3]; 18 mg/kg) was 6.4 times and the “Duration of the pharmacological effect” value [4] was “at least 24 hours”.

`O=C(CCCCC(=O)NCCc1cnc[nH]1)NCCc1cnc[nH]1` [Compound VII, N,N′-bis[2-(1H-imidazol-4-yl)ethyl]adipamide] was tested, and the “Quantity of constrictions for 15 minutes” value [1, 5] was 17.6 ± 2.81.
